The values below come from paper PMC6754100 (Journal of the American Chemical Society, 2019).

The assay addresses T1, human ornithine aminotransferase (hOAT) (Homo sapiens, UniProt P04181).
T1 sequence (P04181 26-439): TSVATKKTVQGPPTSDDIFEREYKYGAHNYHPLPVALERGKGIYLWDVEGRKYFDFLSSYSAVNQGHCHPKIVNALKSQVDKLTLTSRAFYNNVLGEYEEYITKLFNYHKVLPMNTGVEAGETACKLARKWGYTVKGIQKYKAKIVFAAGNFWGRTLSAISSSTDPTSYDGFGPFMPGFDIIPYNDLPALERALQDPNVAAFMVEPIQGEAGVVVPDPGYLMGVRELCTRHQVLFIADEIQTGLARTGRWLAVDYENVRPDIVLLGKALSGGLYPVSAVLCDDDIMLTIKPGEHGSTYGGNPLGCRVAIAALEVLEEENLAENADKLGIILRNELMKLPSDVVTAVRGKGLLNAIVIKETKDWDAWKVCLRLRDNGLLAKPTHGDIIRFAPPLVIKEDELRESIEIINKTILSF
Nature of the assay: […] Å crystal structure of the inactivated enzyme. The class given is biochemical. The settings on record: read-out: Ki.

Counter-ions that a name gives are not always drawn.

Regarding `N[C@H]1C[C@@H](C(=O)O)CC1=C(C(F)(F)F)C(F)(F)F` [compound 1, (1S,3S)-3-amino-4-(perfluoropropan-2-ylidene)cyclopentane-1-carboxylic acid hydrochloride], the KI (inactivation) stood at 54 µM.
